Usually IC50 stands for the concentration that gives 50% inhibition.

The target in one test is T1, MMP-3 (Homo sapiens, UniProt P08254).
T1 construct: Truncated Prostromelysin-257 was expressed in a soluble form in E.coli; made in house; host or cells: E. coli
Kind of test: Automated MMP Profiling Assay, MMP-3 fluorogenic. It is filed as biochemical. To be noted: 96-well automated, P218. From the text: This assay with each invention compound was run with the three enzymes MMP-3, MMP-9 and MMP-2 in parallel as adapted for a 96-well microtitre plate using a Hamilton A® workstation.

Test [1] addresses T2, MMP-2 (Homo sapiens, UniProt P08253).
T2 sequence (P08253 110-660): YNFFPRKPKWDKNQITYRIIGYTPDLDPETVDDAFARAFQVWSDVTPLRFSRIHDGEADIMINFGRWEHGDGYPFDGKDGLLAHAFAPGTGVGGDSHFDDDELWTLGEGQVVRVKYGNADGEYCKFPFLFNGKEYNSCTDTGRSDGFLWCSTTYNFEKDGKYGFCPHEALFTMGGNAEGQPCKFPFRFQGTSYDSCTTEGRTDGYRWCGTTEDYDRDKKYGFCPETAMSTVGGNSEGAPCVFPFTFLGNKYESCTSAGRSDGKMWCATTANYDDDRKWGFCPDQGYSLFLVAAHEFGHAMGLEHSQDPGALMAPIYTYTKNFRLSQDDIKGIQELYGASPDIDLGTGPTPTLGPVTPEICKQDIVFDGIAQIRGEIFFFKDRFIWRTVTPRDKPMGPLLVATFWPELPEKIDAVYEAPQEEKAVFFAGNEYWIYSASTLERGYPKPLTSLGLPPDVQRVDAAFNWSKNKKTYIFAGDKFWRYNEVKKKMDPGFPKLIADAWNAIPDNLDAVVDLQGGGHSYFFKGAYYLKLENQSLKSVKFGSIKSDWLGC
Briefly: Automated MMP Profiling Assay, MMP-2 fluorogenic. It is filed as biochemical. To be noted: 96-well automated, P218; read-out: MMP-2 Fluorogenic IC50 (profiling).

A further test concerns MMP. Briefly: MMP inhibitory activity, comparison in words. Type of test: biochemical.
The subject of a further test is Femoral Lesion. Briefly: Inhibition of Cartilage Lesions in a Guinea Pig Model of Osteoarthritis. It is filed as in vivo. To be noted: 15 mg/kg oral gavage daily, 33 days, vs vehicle. The procedure:
Pathol. 1987 24, 444-448. Seven of the invention compounds were dissolved at 15 mg/ml in a vehicle of 10 mg/ml Tween 80, 190 mg/ml PEG and 0.44 mg/ml ethanolamine. This concentrate was diluted 1:1 with water before dosing (final concentration 7.5 mg/ml). On the 5th day before surgery, each animal received either a test compound plus vehicle or vehicle only administered by oral gavage each day at 15 mg/kg (2 ml/kg) up to surgery and then for four weeks post surgery (total 33 days of dosing). At the beginning of dosing and twice weekly thereafter the animals were weighed and the dose of the respective compounds or vehicles were calculated and adjusted if necessary. At the conclusion of the study the animals were euthanized by CO2 asphyxiation and their stifles removed, partially dissected and placed in 10% neutral buffered formalin. The extent of lesion development on the femoral head was measured by computer assisted surface area analysis.

The target in test [2] is T3, MMP-9 (Homo sapiens, UniProt P14780).
T3 construct: from tissue; host or cells: human polymorphonuclear leukocytes (PMN) from whole blood (New York Blood Center), PMA-stimulated supernatant
Kind of test: Automated MMP Profiling Assay, MMP-9 fluorogenic. Type of test: biochemical. To be noted: 96-well automated, P218.

Another test relates to inflammation. To be noted: R. G. Child et al. 1977; cited from earlier work.
Another test has as its system human colon tumor. To be noted: intraperitoneally; cited from earlier work.
For test [3], the system named is human ovarian carcinoma xenografts. To be noted: mouse, in vivo; cited from earlier work.
The target in test [4] is T2, MMP-2. Kind of test: Secondary P218 Quenched fluorescence Assay for MMP-2 Inhibition. It is filed as biochemical. To be noted: P218 substrate, 0.2 nM enzyme; x (n) = average of n determinations; read-out: MMP-2 Fluorogenic IC50.
Test [5] concerns the target T3, MMP-9. Kind of test: Thiopeptilide MMP-9 Inhibition Assay. To be noted: pH 6.5; x (n) = average of n determinations; read-out: MMP-9: Thiopep. IC50. It is filed as biochemical.

T3 sequence (P14780 107-707 limits assumed): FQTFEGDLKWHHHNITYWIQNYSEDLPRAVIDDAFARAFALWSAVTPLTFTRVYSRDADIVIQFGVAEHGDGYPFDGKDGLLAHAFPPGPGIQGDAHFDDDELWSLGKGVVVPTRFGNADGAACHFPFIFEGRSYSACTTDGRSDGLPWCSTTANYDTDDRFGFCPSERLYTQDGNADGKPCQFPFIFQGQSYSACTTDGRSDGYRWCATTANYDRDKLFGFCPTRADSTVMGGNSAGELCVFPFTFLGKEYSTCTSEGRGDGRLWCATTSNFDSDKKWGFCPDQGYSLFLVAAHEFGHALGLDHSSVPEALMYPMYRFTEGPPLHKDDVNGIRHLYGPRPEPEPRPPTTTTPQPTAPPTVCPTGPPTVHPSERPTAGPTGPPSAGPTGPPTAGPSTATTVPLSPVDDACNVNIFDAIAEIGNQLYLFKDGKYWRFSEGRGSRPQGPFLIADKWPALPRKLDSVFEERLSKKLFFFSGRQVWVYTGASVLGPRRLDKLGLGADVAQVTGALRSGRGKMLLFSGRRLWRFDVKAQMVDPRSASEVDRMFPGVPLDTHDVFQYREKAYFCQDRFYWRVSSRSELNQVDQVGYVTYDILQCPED
T1 sequence (P08254 100-274 limits assumed): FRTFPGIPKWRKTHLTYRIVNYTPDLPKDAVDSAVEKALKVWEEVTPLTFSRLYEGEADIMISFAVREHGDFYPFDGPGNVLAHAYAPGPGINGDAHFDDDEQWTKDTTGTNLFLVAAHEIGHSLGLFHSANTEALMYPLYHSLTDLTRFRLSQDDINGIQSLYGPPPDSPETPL

As for `O=C(C[C@H](CCN1C(=O)c2ccccc2C1=O)C(=O)O)c1ccc(-c2ccc(Cl)cc2)cc1` [Example 268, 4-[4-(4-chlorophenyl)phenyl]-4-oxo-2S-(2-phthalimidoethyl)butanoic acid], the IC50 against MMP-3 came to 0.00573 µM; at MMP-2 [1], 0.00091 µM; on MMP-9 [2], 0.00115 µM. Further, the “MMP inhibitory activity (in words)” value in the test with MMP is “most active”. The “% Inhibition of Femoral Lesion Surface Area” value (“% Inhibition” for short) in the test on Femoral Lesion is listed as 53%.

Regarding `O=C(CC(C(=O)O)c1ccccc1)c1ccc(-c2ccccc2)cc1` (stereo not drawn) [XLIV], the “anti-inflammatory activity (literature)” value with inflammation was “inactive”.

On to `CNC(=O)[C@H](Cc1ccccc1)NC(=O)[C@H](CC(C)C)[C@H](CSc1cccs1)C(=O)NO` [batimastat], for which the “human colon tumor growth and spread” value in the test on human colon tumor was “inhibits human colon tumor growth and spread”. The “survival of mice bearing human ovarian carcinoma xenografts” value in [3] is recorded as “prolongs the survival”.

Regarding `O=C(O)CC(C(=O)c1ccc(-c2ccccc2)cc1)c1ccccc1` (stereo not drawn) [LXXVII], the “anti-inflammatory activity (literature)” value in the test on inflammation was “inactive”.

As to `O=C(C[C@H](CSc1ccccc1)C(=O)O)c1ccc(-c2ccc(Cl)cc2)cc1` [Example 197, 4-[4-(4-chlorophenyl)phenyl]-4-oxo-2S-(phenylthiomethyl)butanoic acid], the IC50 was 0.026 µM at MMP-2 [4], 0.022 µM on MMP-2 [1] and 0.197 µM on MMP-9 [5]. Further, in the test on Femoral Lesion, the “% Inhibition” value is reported as 18%.

As to `CC(CC(=O)c1ccc(-c2ccccc2)cc1)C(=O)O` (stereo not drawn) [XLVIII], the “anti-inflammatory activity (literature)” value in the test with inflammation was “inactive”.

On to `CCCCCOc1ccc(-c2ccc(C(=O)C[C@H](CCCc3ccccc3)C(=O)O)cc2)cc1` [Example 86, 4-[4-(4-pentyloxyphenyl)phenyl]-4-oxo-2S-(3-phenylpropyl)butanoic acid], for which the IC50 against MMP-3 was found to be 0.051 µM; at MMP-2 [1] it was 0.0125 µM; against MMP-9 [2], 0.442 µM. In the test with Femoral Lesion, the “% Inhibition” value was determined as 0%.
